Assay results reported in a compilation of properties of binary mixtures (doi:10.1016/j.fluid.2019.112304).

Assay: xn = mol fraction of the nth substance listed
Details: 101 kPa

CCCCO + CCCCCCCCCCCC[N+](C)(C)Cc1ccccc1.O=S(=O)([N-]S(=O)(=O)C(F)(F)F)C(F)(F)F
x2 = 0
Details	viscosity [mPa·s]
303.15 K	2.23
318.15 K	1.56
323.15 K	1.42
328.15 K	1.27
333.15 K	1.11
338.15 K	1.01

CCCCCCCCCCCC[N+](C)(C)Cc1ccccc1.O=S(=O)([N-]S(=O)(=O)C(F)(F)F)C(F)(F)F + CCCCO
viscosity [mPa·s]
Details	x1 = 0.1507	x1 = 0.3015	x1 = 0.4494	x1 = 0.594	x1 = 0.7485	x1 = 0.9164	x1 = 1
298.15 K	15.3	43.6	103	208	505	1066	–
303.15 K	12.4	–	78	153	362	748	970
308.15 K	10.4	–	60.1	115	266	532	–
313.15 K	8.75	22	47.2	86.1	–	386	485
318.15 K	–	18.1	–	69.1	150	285	351
323.15 K	6.4	14.9	30.4	57.2	117	210	261
328.15 K	5.54	12.5	24.9	46.8	91.6	–	197
333.15 K	–	10.5	–	–	76.8	125	152
338.15 K	4.24	8.87	17.2	33.8	–	99	–
343.15 K	3.75	7.58	14.6	29	–	79.2	91.8
348.15 K	3.43	6.53	12.2	–	46.3	68	77.5

c1ccsc1 + N#C[C-](C#N)C#N.OCC[n+]1ccccc1
x2 = 0
Details	viscosity [mPa·s]
293.15 K	0.653
298.15 K	0.615
308.15 K	0.545
313.15 K	0.518
318.15 K	0.491
323.15 K	0.464
328.15 K	0.441
338.15 K	0.4
343.15 K	0.382

N#C[C-](C#N)C#N.OCC[n+]1ccccc1 + c1ccsc1
viscosity [mPa·s]
Details	x1 = 0.4042	x1 = 0.4996	x1 = 0.6	x1 = 0.7041	x1 = 0.8044	x1 = 0.901	x1 = 1
293.15 K	19.9	29.5	40.2	–	67	91.2	–
298.15 K	16.3	23.6	31.8	41.2	51.6	–	97
303.15 K	13.6	–	25.5	32.7	40.1	–	71.8
308.15 K	11.5	15.8	20.7	26.1	31.6	39.6	54.6
313.15 K	10	13.4	17.2	21.2	25.6	31.6	42.3
318.15 K	8.78	11.4	14.4	17.7	–	25.7	34
323.15 K	7.81	9.87	–	14.8	17.6	21.3	27.8
328.15 K	7.01	8.67	10.6	–	14.8	–	22.9
333.15 K	6.15	–	–	10.9	12.8	15.2	19.3
338.15 K	–	–	7.86	–	11.1	13.1	16.4
343.15 K	4.68	–	6.99	8.4	–	11.5	14
348.15 K	4.17	5.12	6.2	7.5	8.89	10.3	12.3
